Reference: paper PMC3514216, “SRC Homology 2 Domain Binding Sites in Insulin, IGF-1 and FGF receptor mediated signaling networks reveal an extensive potential interactome” (Cell Communication and Signaling : CCS, 2012)

Legend:
panel of 50 SH2 domains = assay: SPOT peptide array probed with each of 50 GST-SH2 domains; type: binding; conditions: SH2 domains with intensity >3X array mean; GST-SH2 0.25 μM, 1 mM DTT
How it was run: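 Membrane SPOT arrays of 192 phosphotyrosine 11-mer peptides (four residues N-terminal, six C-terminal to pTyr) probed with GST-SH2 fusions, detected by anti-GST plus near-infrared secondary antibody. Spots >3-fold array mean scored positive, below mean negative, 1–3× indeterminate; peptides binding GST alone above mean in two of three trials flagged as sticky.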

[1] = system: Plcγ SH2 domain (N or C not specified); assay: SPOT peptide array; type: binding; conditions: GST-SH2 0.25 μM, membrane-bound peptide, 1 mM DTT, LiCor read-out
From the text: (§1) The use of addressable peptide arrays is a reproducible and semi-quantitative approach that has been extensively validated for studying protein interactions with peptide ligands. To investigate connections between SH2 domain proteins and their putative phosphorylated docking sites on cell surface receptors, we developed addressable arrays consisting of 192 phosphotyrosine peptides. This peptide set was assembled using 71 phosphotyrosine peptide motifs corresponding to all of the cytoplasmic tyrosine residues within the FGF receptors (FGFR1-4), insulin receptor (InsR) and IGF-1 receptor (IGF-1R) (Figure 1A). Activation of these receptors results in the phosphorylation of associated scaffold proteins, and so 75 phosphotyrosine peptides corresponding to a comprehensive list of tyrosine residues within insulin receptor substrates (IRS-1 and IRS-2) and fibroblast receptor substrates (FRS-2 and FRS-3) were included. In addition, 33 phosphotyrosine peptides were incorporated from the downstream signaling proteins PLC-γ1, p130Cas (BCAR1) and p62DOK1. […] These control peptides provide a reference and establish the empirical cut-off for designated binding interactions (Table 1). No discrimination was made against peptides on the basis of reported phosphorylation state in order to examine a diverse and unbiased set of motifs. The resulting set of 192 phosphotyrosine peptides and their corresponding position in the proteins of origin is noted in Additional file 1: Table S1. Addressable arrays were synthesized as membrane-bound 11-mer peptides using the SPOT synthesis technique. While the majority of SH2 domains recognize residues C-terminal to the phosphotyrosine in their cognate peptide ligands, additional contacts between SH2 domains and residues N-terminal to the phosphotyrosine are observed for the SH2 domain of Sh2d1a (SAP) and cannot be ruled out in other cases. Peptides were synthesized with six flanking residues C-terminal to the phosphotyrosine and four residues N-terminal to the phosphotyrosine.
(§2) SH2 domains were arrayed as GST fusion proteins and detected using anti-GST primary antibodies and near-infrared labeled secondary antibodies. In an effort to present a dataset with minimal false positives, we chose an empirical cutoff based on the array average across all peptide spots to classify interactions (Figure 1A). In cases where the intensity of the signal for an individual SH2-domain binding event exceeded the mean intensity of all the peptides on the membrane by three-fold were scored as “array positives” [22]. Non-binding was judged in cases where the intensity of a spot was less than the mean intensity of all spots on the membrane and these were scored as “array negatives”. Peptides with signal intensities between 1X and 3X mean were scored as “indeterminate” and ascribed as neither array positive binding interactions nor array-negative non-binders. […] This signature may be indicative of promiscuity differences between phosphopeptides or there may be a subset of peptides which interact in a nonspecific fashion with either the GST fusion tag or one of the antibodies used for detection, resulting in false positives. Consistent with our goal of reducing the errors associated with identifying false-positives, we probed three separate arrays with three separate preps of the GST fusion tag alone. Potentially non-specificly interacting peptides (so-called ‘sticky’ peptides) were identified as any that bound to GST with above mean intensity in two out of three separate trials. This approach identifies any peptides which interact with GST or either of the recognition antibodies, a known confounding factor for downstream analysis. This conservative approach allows us to score many significant peptides as ‘binders’ which may have been indeterminate before when incorporating the ‘sticky’ peptides into the array average. […]

Crk SH2 domain = Crk SH2 domain (Homo sapiens, UniProt P46108); parameters: method as in earlier work; conditions: SH2 protein microarray; N.B. = non binding; read-out: Protein Microarray (Macbeath) – KD; cited from earlier work
Abl2 SH2 domain = target: T1, Abl2 SH2 domain (Homo sapiens, UniProt P42684); parameters: method as in earlier work; conditions: SH2 protein microarray; N.B. = non binding; read-out: Protein Microarray (Macbeath) – KD; cited from earlier work
T1 sequence (P42684 173-263 limits assumed): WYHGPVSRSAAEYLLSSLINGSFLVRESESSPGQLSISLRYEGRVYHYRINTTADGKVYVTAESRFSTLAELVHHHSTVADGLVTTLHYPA

CrkL SH2 domain = CrkL SH2 domain (Homo sapiens, UniProt P46109); parameters: method as in earlier work; conditions: SH2 protein microarray; N.B. = non binding; read-out: Protein Microarray (Macbeath) – KD; cited from earlier work
Sh2b SH2 domain = Sh2b SH2 domain (Homo sapiens, UniProt Q9NRF2); assay: SPOT peptide array; type: binding; conditions: GST-SH2 0.25 μM
From the text: as §1, §2

Plcγ-N SH2 domain = assay: SPOT peptide array; type: binding; conditions: spot intensity as factor of array mean; GST-SH2 0.25 μM
From the text: as §1, §2

Plcγ-C SH2 domain = assay: SPOT peptide array; type: binding; conditions: spot intensity as factor of array mean; GST-SH2 0.25 μM
From the text: as §1, §2

Shb SH2 domain = Shb SH2 domain (Homo sapiens, UniProt Q15464); assay: SPOT peptide array; type: binding; conditions: GST-SH2 0.25 μM
From the text: as §1, §2

Ptpn11_N SH2 domain [2] = target: T2, Ptpn11_N SH2 domain (Homo sapiens, UniProt Q06124); assay: Fluorescence polarization solution binding; conditions: Rhodamine B-labeled peptide, GST-SH2, Beacon 2000, read-out: Affinity (KD)
T2 sequence (Q06124 6-102 limits assumed): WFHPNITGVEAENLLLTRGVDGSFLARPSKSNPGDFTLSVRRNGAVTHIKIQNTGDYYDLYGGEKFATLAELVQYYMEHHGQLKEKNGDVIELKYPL
From the text: To verify the binding results obtained from addressable peptide arrays we employed an orthogonal method of determining SH2 interactions with peptide ligands. We measured the dissociation constants of 60 binary SH2-peptide pairs in solution by fluorescence polarization (Table 2, Additional file 2: Figures S3A-C).
Peptides were synthesized using FMOC-chemistry onto pre-loaded tenta-gel resins. Peptides were then labeled with Rhodamine B (Abbey Color) and then cleaved using trifluoroacetic acid. Peptides were lyophilized and then purified using a LC/MS (Agilent 2100). Dissociation constants were measured using the Beacon 2000 (Invitrogen) as previously described.
Binding Affinities determined by Fluorescence Polarization. Rhodamine B-labeled peptides were mixed with varying concentrations of GST-tagged SH2 domains. Fluorescence polarization measurements were read on a Beacon 2000 (Invitrogen). The curves were fit to a Michaelis-Menten equation to calculate the dissociation constant, KD. […] (C) Affinity measurements that fell below the 2X mean intensity and were considered array negative on the SPOT array.

Ptpn11_N SH2 domain [3] = target: T2, Ptpn11_N SH2 domain; assay: SPOT peptide array; type: binding; conditions: GST-SH2 0.25 μM
From the text: as §1, §2

Fyn SH2 domain = assay: SPOT peptide array; type: binding; conditions: GST-SH2 0.25 μM
From the text: as §1, §2

Ptpn11_C SH2 domain = assay: SPOT peptide array; type: binding; conditions: GST-SH2 0.25 μM
From the text: as §1, §2

PI3K1_N SH2 domain [4] = target: T3, PI3K1_N SH2 domain (Homo sapiens, UniProt P27986); assay: SPOT peptide array; type: binding; conditions: GST-SH2 0.25 μM, membrane-bound peptide, 1 mM DTT, LiCor read-out
From the text: as §1, §2

PI3K1_N SH2 domain [5] = target: T3, PI3K1_N SH2 domain; parameters: method as in PMID 8384875; conditions: cited from earlier work
Ptpn11_N SH2 domain [6] = target: T2, Ptpn11_N SH2 domain; parameters: method as in 5 sources, one per row (each row's own in cited_ref): ref [107] = [107]; PMID 8144631; Case RD Piccione E Wolf G Benett AM Lechleider RJ Neel BG Shoelson SE SH-PTP2/Syp SH2 domain binding specificity is defined by direct interactions with platelet-derived growth factor beta-receptor, ep ||| ref [107, 108] = [107]; PMID 8144631; Case RD Piccione E Wolf G Benett AM Lechleider RJ Neel BG Shoelson SE SH-PTP2/Syp SH2 domain binding specificity is defined by direct interactions with platelet-derived growth factor beta-receptor, ep || [108]; PMID 7504175; doi:10.1128/mcb.13.12.7418-7428.1993; Sun XJ Crimmins DL Myers MG Jr Miralpeix M White MF Pleiotropic insulin signals are engaged by multisite phosphorylation of IRS-1 Mol Cell Biol 1993 13 7418 7428 7504175 10.1128/mcb.13.12.7418-7428.19 ||| ref [95, 108, 110] = [95]; PMID 9422724; doi:10.1074/jbc.273.2.729; Ottinger EA Botfield MC Shoelson SE Tandem SH2 domains confer high specificity in tyrosine kinase signaling J Biol Chem 1998 273 729 735 9422724 10.1074/jbc.273.2.729 || [108]; PMID 7504175; doi:10.1128/mcb.13.12.7418-7428.1993; Sun XJ Crimmins DL Myers MG Jr Miralpeix M White MF Pleiotropic insulin signals are engaged by multisite phosphorylation of IRS-1 Mol Cell Biol 1993 13 7418 7428 7504175 10.1128/mcb.13.12.7418-7428.19 || [110]; PMID 9756938; doi:10.1074/jbc.273.41.26908; Myers MG Jr Mendez R Shi P Pierce JH Rhoads R White MF The COOH-terminal tyrosine phosphorylation sites on IRS-1 bind SHP-2 and negatively regulate insulin signaling J Biol Chem 1998 273 26908 26914 9 ||| ref 107 (IRS-1 Y896 also 108) ||| ref 95, 108, 110 = [95]; PMID 9422724; doi:10.1074/jbc.273.2.729; Ottinger EA Botfield MC Shoelson SE Tandem SH2 domains confer high specificity in tyrosine kinase signaling J Biol Chem 1998 273 729 735 9422724 10.1074/jbc.273.2.729 || [108]; PMID 7504175; doi:10.1128/mcb.13.12.7418-7428.1993; Sun XJ Crimmins DL Myers MG Jr Miralpeix M White MF Pleiotropic insulin signals are engaged by multisite phosphorylation of IRS-1 Mol Cell Biol 1993 13 7418 7428 7504175 10.1128/mcb.13.12.7418-7428.19 || [110]; PMID 9756938; doi:10.1074/jbc.273.41.26908; Myers MG Jr Mendez R Shi P Pierce JH Rhoads R White MF The COOH-terminal tyrosine phosphorylation sites on IRS-1 bind SHP-2 and negatively regulate insulin signaling J Biol Chem 1998 273 26908 26914 9; conditions: ref 107 (IRS-1 Y896 also 108); read-out: Relative affinity (IC50); cited from earlier work
[7] = membrane-bound peptide, 1 mM DTT, LiCor read-out
[8] = spot intensity as factor of array mean

T3 sequence (P27986 333-428 limits assumed): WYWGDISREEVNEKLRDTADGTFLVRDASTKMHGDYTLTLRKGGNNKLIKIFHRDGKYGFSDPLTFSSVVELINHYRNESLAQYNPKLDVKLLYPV
Chain of Shb SH2 domain (Q15464 410-504 limits assumed): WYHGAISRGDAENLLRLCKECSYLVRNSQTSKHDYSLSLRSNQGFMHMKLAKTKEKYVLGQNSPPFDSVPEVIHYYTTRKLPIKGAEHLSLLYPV
Chain of Crk SH2 domain (P46108 13-118 limits assumed): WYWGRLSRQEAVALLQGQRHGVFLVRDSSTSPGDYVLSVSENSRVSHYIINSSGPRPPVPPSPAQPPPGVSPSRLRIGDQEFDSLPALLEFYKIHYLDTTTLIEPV
Chain of CrkL SH2 domain (P46109 14-102 limits assumed): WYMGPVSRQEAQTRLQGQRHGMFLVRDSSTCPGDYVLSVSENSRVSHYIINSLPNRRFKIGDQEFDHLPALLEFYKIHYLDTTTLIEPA

Molecule: VSEEYLDLRLT [11-mer peptide, FGFR4 (754)]
- Other SH2 domains bound (additional array-positive SH2 domains) (panel of 50 SH2 domains): SHD
- Array positive [1]: No (Peptide spots with average intensity values between 1X-3X the array mean were defined as ‘indeterminate’. Those with intensities below 1X mean were defined as array negative)

Molecule: SSKDLVSCApYQVARGMED (SSKDLVSCAYQVARGMED)
- Kd (Crk SH2 domain): 0.26 µM
- Kd (Abl2 SH2 domain): 0.012 µM
- Kd (CrkL SH2 domain): 0.24 µM

Molecule: THDLYMIMREA [11-mer peptide, FGFR3 (Y724)]
- Array positive (Sh2b SH2 domain; [7]): No (Peptide spots with average intensity values between 1X-3X the array mean were defined as ‘indeterminate’. Those with intensities below 1X mean were defined as array negative)
- Peptide array intensity (X mean) (Sh2b SH2 domain; [8]): 0.44 X Mean

Molecule: SNQEpYLDLSMP [11-mer phosphotyrosine peptide, FGFR1 (Y766)]
- Peptide array intensity (X mean) (Plcγ-N SH2 domain): 0.52 X Mean
- Peptide array intensity (X mean) (Plcγ-C SH2 domain): 0.21 X Mean
- Array positive [1]: No (Peptide spots with average intensity values between 1X-3X the array mean were defined as ‘indeterminate’. Those with intensities below 1X mean were defined as array negative)
- Array positive (Shb SH2 domain; [7]): No (Peptide spots with average intensity values between 1X-3X the array mean were defined as ‘indeterminate’. Those with intensities below 1X mean were defined as array negative)
- Peptide array intensity (X mean) (Shb SH2 domain; [8]): 0.45 X Mean

Molecule: CC(C)[C@H](NC(=O)[C@H](CC(=O)O)NC(=O)[C@H](CCC(=O)O)NC(=O)[C@H](C)N)C(=O)N[C@@H](Cc1ccc(OP(=O)(O)O)cc1)C(=O)N[C@@H](CC(=O)O)C(=O)N[C@H](C(=O)N1CCC[C@H]1C(=O)N1CCC[C@H]1C(=O)N1CCC[C@H]1C(=O)N[C@@H](C)C(=O)O)C(C)C [AEDVpYDVPPPA]
- Kd (Ptpn11_N SH2 domain [2]): > 50 µM

Molecule: ARDIHHIDYpYKKTTNGRD (ARDIHHIDYYKKTTNGRD)
- Kd (Crk SH2 domain): 1.11 µM

Molecule: DLSApYASISFQ [11-mer phosphotyrosine peptide, IRS-1 (Y1229)]
- Array positive (Ptpn11_N SH2 domain [3]; [7]): No (Peptide spots with average intensity values between 1X-3X the array mean were defined as ‘indeterminate’. Those with intensities below 1X mean were defined as array negative)
- Peptide array intensity (X mean) (Ptpn11_N SH2 domain [3]; [8]): 2.78 X Mean
- Array positive (Fyn SH2 domain; [7]): No (Peptide spots with average intensity values between 1X-3X the array mean were defined as ‘indeterminate’. Those with intensities below 1X mean were defined as array negative)
- Peptide array intensity (X mean) (Fyn SH2 domain; [8]): 0.48 X Mean
- Array positive (Ptpn11_C SH2 domain; [7]): No (Peptide spots with average intensity values between 1X-3X the array mean were defined as ‘indeterminate’. Those with intensities below 1X mean were defined as array negative)
- Peptide array intensity (X mean) (Ptpn11_C SH2 domain; [8]): 1.59 X Mean

Molecule: GSGDpYMPMSPK [11-mer phosphotyrosine peptide, printed as IRS-1 (Y612); footnote says Y632]
- Array positive (PI3K1_N SH2 domain [4]): No (Peptide spots with average intensity values between 1X-3X the array mean were defined as ‘indeterminate’. Those with intensities below 1X mean were defined as array negative)
- Relative affinity (ID50) (PI3K1_N SH2 domain [5]): ID50 = 0.7-1.1 μM

Molecule: DPNGpYMMMSPS (DPNGYMMMSPS) [11-mer phosphotyrosine peptide, IRS-1 (Y662)]
- IC50 (Ptpn11_N SH2 domain [6]): 96 ± 13 µM

Molecule: DLSApYASISFQ (DLSAYASISFQ) [11-mer phosphotyrosine peptide, IRS-1 (Y1229)]
- IC50 (Ptpn11_N SH2 domain [6]): 25 ± 4.2 µM
